Experimental data taken from the NIST ThermoML archive (doi:10.1016/j.fluid.2016.02.031).
± gives the expanded uncertainty stated by the source.

Assay: xn = mol fraction of the nth substance listed
Conditions: 100 kPa, Liquid; for viscosity: Concentric cylinders viscometry; for mass density: Vibrating tube method

OCCCO [propan-1,3-diol] + CCC(C)=O
Conditions	mass density [kg/m3]	viscosity [mPa·s]
288.15 K, x1 = 0.1052	834.263 ± 0.2	0.5783 ± 0.0079
288.15 K, x1 = 0.2004	855.981 ± 0.2	0.8238 ± 0.01
288.15 K, x1 = 0.3002	879.545 ± 0.2	1.258 ± 0.015
288.15 K, x1 = 0.4003	904.311 ± 0.2	2.132 ± 0.024
288.15 K, x1 = 0.4999	929.443 ± 0.19	3.633 ± 0.04
288.15 K, x1 = 0.5992	954.483 ± 0.19	6.313 ± 0.069
288.15 K, x1 = 0.6992	979.932 ± 0.18	11.18 ± 0.12
288.15 K, x1 = 0.7989	1003.76 ± 0.18	20.31 ± 0.22
288.15 K, x1 = 0.8998	1028.39 ± 0.19	37.46 ± 0.41
288.15 K, x1 = 1	1055.96 ± 0.19	68.06 ± 0.75
293.15 K, x1 = 0.1052	829.229 ± 0.21	0.5513 ± 0.0076
293.15 K, x1 = 0.2004	851.106 ± 0.2	0.7652 ± 0.0097
293.15 K, x1 = 0.3002	874.858 ± 0.2	1.144 ± 0.014
293.15 K, x1 = 0.4003	899.864 ± 0.2	1.889 ± 0.022
293.15 K, x1 = 0.4999	925.2 ± 0.19	3.143 ± 0.035
293.15 K, x1 = 0.5992	950.438 ± 0.19	5.35 ± 0.059
293.15 K, x1 = 0.6992	976.1 ± 0.19	9.291 ± 0.1
293.15 K, x1 = 0.7989	1000.12 ± 0.18	16.48 ± 0.18
293.15 K, x1 = 0.8998	1024.96 ± 0.19	29.8 ± 0.32
293.15 K, x1 = 1	1052.87 ± 0.19	52.75 ± 0.55
298.15 K, x1 = 0.1052	824.172 ± 0.21	0.5185 ± 0.0073
298.15 K, x1 = 0.2004	846.22 ± 0.2	0.714 ± 0.0092
298.15 K, x1 = 0.3002	870.166 ± 0.2	1.046 ± 0.013
298.15 K, x1 = 0.4003	895.391 ± 0.2	1.688 ± 0.019
298.15 K, x1 = 0.4999	920.936 ± 0.19	2.744 ± 0.031
298.15 K, x1 = 0.5992	946.376 ± 0.19	4.578 ± 0.05
298.15 K, x1 = 0.6992	972.256 ± 0.19	7.804 ± 0.085
298.15 K, x1 = 0.7989	996.448 ± 0.18	13.57 ± 0.15
298.15 K, x1 = 0.8998	1021.51 ± 0.19	24.01 ± 0.26
298.15 K, x1 = 1	1049.76 ± 0.19	41.97 ± 0.45
303.15 K, x1 = 0.1052	819.09 ± 0.21	0.4891 ± 0.007
303.15 K, x1 = 0.2004	841.328 ± 0.2	0.6674 ± 0.0088
303.15 K, x1 = 0.3002	865.461 ± 0.2	0.9604 ± 0.012
303.15 K, x1 = 0.4003	890.9 ± 0.2	1.517 ± 0.018
303.15 K, x1 = 0.4999	916.653 ± 0.19	2.414 ± 0.027
303.15 K, x1 = 0.5992	942.296 ± 0.19	3.957 ± 0.044
303.15 K, x1 = 0.6992	968.392 ± 0.19	6.624 ± 0.072
303.15 K, x1 = 0.7989	992.685 ± 0.18	11.3 ± 0.12
303.15 K, x1 = 0.8998	1018 ± 0.19	19.67 ± 0.21
303.15 K, x1 = 1	1046.64 ± 0.19	33.56 ± 0.36
308.15 K, x1 = 0.1052	813.976 ± 0.21	0.4633 ± 0.0068
308.15 K, x1 = 0.2004	836.391 ± 0.2	0.6247 ± 0.0083
308.15 K, x1 = 0.3002	860.732 ± 0.2	0.8841 ± 0.011
308.15 K, x1 = 0.4003	886.382 ± 0.2	1.379 ± 0.016
308.15 K, x1 = 0.4999	912.346 ± 0.2	2.141 ± 0.024
308.15 K, x1 = 0.5992	938.196 ± 0.19	3.447 ± 0.038
308.15 K, x1 = 0.6992	964.512 ± 0.19	5.663 ± 0.062
308.15 K, x1 = 0.7989	989.056 ± 0.18	9.517 ± 0.1
308.15 K, x1 = 0.8998	1014.59 ± 0.19	16.21 ± 0.18
308.15 K, x1 = 1	1043.5 ± 0.18	27.15 ± 0.29
313.15 K, x1 = 0.1052	808.832 ± 0.21	0.4382 ± 0.0066
313.15 K, x1 = 0.2004	831.418 ± 0.21	0.5847 ± 0.008
313.15 K, x1 = 0.3002	855.978 ± 0.2	0.8163 ± 0.01
313.15 K, x1 = 0.4003	881.838 ± 0.2	1.237 ± 0.015
313.15 K, x1 = 0.4999	908.015 ± 0.2	1.909 ± 0.022
313.15 K, x1 = 0.5992	934.073 ± 0.19	3.025 ± 0.034
313.15 K, x1 = 0.6992	960.613 ± 0.19	4.879 ± 0.053
313.15 K, x1 = 0.7989	985.317 ± 0.18	8.064 ± 0.088
313.15 K, x1 = 0.8998	1011.06 ± 0.19	13.49 ± 0.15
313.15 K, x1 = 1	1040.35 ± 0.18	22.22 ± 0.24
318.15 K, x1 = 0.1052	803.661 ± 0.21	0.4141 ± 0.0064
318.15 K, x1 = 0.2004	826.427 ± 0.21	0.548 ± 0.0076
318.15 K, x1 = 0.3002	851.191 ± 0.2	0.7557 ± 0.0097
318.15 K, x1 = 0.4003	877.271 ± 0.2	1.127 ± 0.013
318.15 K, x1 = 0.4999	903.664 ± 0.2	1.711 ± 0.02
318.15 K, x1 = 0.5992	929.93 ± 0.19	2.671 ± 0.03
318.15 K, x1 = 0.6992	956.69 ± 0.19	4.237 ± 0.047
318.15 K, x1 = 0.7989	981.556 ± 0.19	6.885 ± 0.075
318.15 K, x1 = 0.8998	1007.51 ± 0.19	11.33 ± 0.12
318.15 K, x1 = 1	1037.18 ± 0.18	18.35 ± 0.2
323.15 K, x1 = 0.1052	798.453 ± 0.21	0.3908 ± 0.0062
323.15 K, x1 = 0.2004	821.409 ± 0.21	0.5165 ± 0.0073
323.15 K, x1 = 0.3002	846.386 ± 0.2	0.7008 ± 0.0091
323.15 K, x1 = 0.4003	872.674 ± 0.2	1.03 ± 0.013
323.15 K, x1 = 0.4999	899.282 ± 0.2	1.542 ± 0.018
323.15 K, x1 = 0.5992	925.759 ± 0.19	2.372 ± 0.027
323.15 K, x1 = 0.6992	952.744 ± 0.19	3.702 ± 0.041
323.15 K, x1 = 0.7989	977.808 ± 0.19	5.939 ± 0.065
323.15 K, x1 = 0.8998	1004.01 ± 0.19	9.603 ± 0.1
323.15 K, x1 = 1	1033.98 ± 0.18	15.29 ± 0.17
328.15 K, x1 = 0.1052	793.206 ± 0.21	0.3682 ± 0.0059
328.15 K, x1 = 0.2004	816.363 ± 0.21	0.484 ± 0.007
328.15 K, x1 = 0.3002	841.54 ± 0.2	0.6507 ± 0.0086
328.15 K, x1 = 0.4003	868.041 ± 0.2	0.9438 ± 0.012
328.15 K, x1 = 0.4999	894.87 ± 0.2	1.393 ± 0.016
328.15 K, x1 = 0.5992	921.56 ± 0.19	2.121 ± 0.024
328.15 K, x1 = 0.6992	948.774 ± 0.19	3.257 ± 0.036
328.15 K, x1 = 0.7989	974.119 ± 0.19	5.165 ± 0.056
328.15 K, x1 = 0.8998	1000.59 ± 0.18	8.217 ± 0.089
328.15 K, x1 = 1	1030.77 ± 0.18	12.84 ± 0.14
333.15 K, x1 = 0.1052	787.917 ± 0.21	0.3461 ± 0.0058
333.15 K, x1 = 0.2004	811.298 ± 0.21	0.4456 ± 0.0066
333.15 K, x1 = 0.3002	836.659 ± 0.21	0.6058 ± 0.0082
333.15 K, x1 = 0.4003	863.375 ± 0.2	0.8671 ± 0.011
333.15 K, x1 = 0.4999	890.43 ± 0.2	1.271 ± 0.015
333.15 K, x1 = 0.5992	917.332 ± 0.2	1.911 ± 0.022
333.15 K, x1 = 0.6992	944.777 ± 0.19	2.894 ± 0.032
333.15 K, x1 = 0.7989	970.698 ± 0.19	4.581 ± 0.05
333.15 K, x1 = 0.8998	997.503 ± 0.18	7.128 ± 0.077
333.15 K, x1 = 1	1027.53 ± 0.18	10.96 ± 0.12
